This is an account of results in US8557783B2, “Phosphotetrahydropyran compounds for the treatment of wounds and fibrotic disorders” (Pharmaxis Pty Limited, priority 2009, dated 2013).

For data set [1], the target named is T1, Cation-Independent Mannose 6-Phosphate Receptor (sCI-MPR) (Bos taurus, UniProt P08169).
T1 construct: Samples of purified sCI-MPR purified from fetal calf serum; from tissue; host or cells: fetal calf serum
Kind of data set: Antagonism of mannose 6-phosphate binding to the CI-M6P receptor (SPR, Biacore). The following applies: mean; SPR at 25° C., sCI-MPR binding to immobilized human β-glucuronidase. On the set-up: species or system fetal calf. On the procedure:
All surface plasmon resonance (SPR) measurements were performed at 25° C. using a Biacore 3000 instrument (BIAcore, Piscataway, N.J.). CM5 research grade sensor chips, surfactant P20 and amine coupling kits were also obtained from BIAcore. Purified human β-glucuronidase was immobilized on CM5 sensor chips following activation of the surface using 1-ethyl-3-(3-dimethylaminopropyl)carbodiimide and N-hydroxysuccinimide as recommended by the manufacturer. Briefly, the proteins were injected onto the activated dextran surface at a concentration of 10-20 μg/mL in 10 mM sodium acetate buffer, pH 4.5 using 10 mM HEPES pH 7.5, 150 mM NaCl and 0.005% (v/v) P20 as the running buffer. After coupling, unreacted N-hydroxysuccinimide ester groups were blocked with ethanolamine. The reference surface was treated in the same way except that protein was omitted. […] The response at equilibrium for each concentration of protein was determined by averaging the response over a 10 sec period within the steady state region of the sensorgram using the BIAevaluation software package (version 4.0.1). […]
(SPR reads the build-up and loss of mass on a sensor chip optically.)

Data set [2] deals with LPS-induced lung inflammation, C57BI/6 mice. The data set is described as follows: Acute LPS-induced lung inflammation in the mouse. The note with it: for total number of inflammatory cells in BAL fluid versus LPS control group: 15 min prior to LPS, 3 hours after LPS. It is filed as in vivo. On the procedure: Age-matched germ-free male C57BI/6 mice (25.30±0.39 g; 6-7 week-old) were transiently anaesthetized with a mixture of isoflurane and oxygen. The vehicle-treated group received intravenous injection (iv) of saline 15 min prior to intra-tracheal instillation (i.t.) of lipopolysaccharide (LPS, 3 mg/kg). Another set of animals received i.v. injection of dexamethasone at 1 mg/kg or 2.5 mg/kg 1 hour prior to LPS. The phosphotetrahydropyran test compound was administered to the animals at 5, 15 and 30 mg/kg (iv) 15 min prior to LPS instillation. A separate group of mice was used as sham (saline/PBS) and was treated with i.v. injection of saline and i.t. injection of PBS (phosphate buffered saline).
Three hours after the LPS administration, animals were anaesthetized with urethane (25%, […] body weight). A blood sample was collected by cardiac puncture (≅1 mL) and the animals were sacrificed by cervical dislocation. The trachea was cannulated and the lungs were lavaged with 2 mL of PBS containing EDTA (1 mM). The lavaged fluid was harvested by gentle injections and aspirations four times with 0.5 mL each, and centrifuged. The total cell count was determined on a fresh fluid specimen with Turk solution using a Neubauer chamber. Differential cell counts were determined using Cytospin technique. Aliquots of the bronchoalveolar lavage (BAL) supernatants were stored without further treatment at −80° C.
Slices of each pulmonary lobe were immediately removed from the animal, weighed and either frozen in liquid nitrogen for myeloperoxidase (MPO) assay or placed in the oven for lung oedema evaluation. Determination of MPO activity was used as an index of leukocyte accumulation, where one unit of MPO activity was defined as that degrading 1 μmol hydrogen peroxide/min at 25° C. by the formula MPO (U/g)=Vmax/s×60/0.0113/0.5. Data were presented as MPO activity expressed as U/g wet tissue. To determine pulmonary oedema, the left pulmonary lobes were removed, weighed and dried at 60° C. for 48 h for wet to dry weight ratio measurements.

For data set [3], the system named is thioglycolate-induced leukocyte migration in the peritoneal cavity, C57BI/6 mice. The data set is described as follows: Thioglycolate-induced peritonitis in the mouse. It is filed as in vivo. The note with it: for peritoneal total cell number in untreated mice compared with treated mice: −15 min, 3 h. The procedure: Germ-free male C57BI/6 mice, weighing in the target range of 21.30±0.39 g (6-7 week-old) were anaesthetised with halothane and then received by intravenous route (iv) increasing doses of the phosphotetrahydropyran test compound (5 or 15 mg/kg, −15 min), dexamethasone (1 mg/kg, −60 min) or the respective vehicle (saline 0.9%, pH 7.4). Peritoneal inflammation was induced by i.p. injection of Brewer's thioglycolate. Thioglycolate was prepared freshly (3%, w/v) in sterile saline, and 1.5 mL was injected into the intraperitoneum cavity (ip). Following 3 h treatment, animals were killed (under anesthesia) by cervical dislocation, and cells were recovered by peritoneal lavage using 5 mL of ice-cold PBS. The lavage contents were immediately stored on ice. Peritoneal exudate cells (PEC) were further diluted in 5 mL of ice-cold PBS. The total cell count was determined on a Neubauer chamber with Turk solution, whereas the differential cell counts were conducted on cytospin preparations. Peritoneal lavage was carefully confirmed to be negative for erythrocytes by microscopy to exclude the possibility that leukocyte accumulation in the peritoneal cavity was due to microbleeding, which may occur during animal preparation.
Data are expressed as Mean (±SEM) from n individual animals. Statistical analysis of data was carried out using Software Graphpad prism v4. Comparative data were analysed using ANOVA followed by Dunnett's post test and ANOVA (unpaired Student's T tests). Statistical P values less than 0.05 were taken as significant.
The results of polymorphonuclear (PMN) (A), mononuclear (MN) recruitment (B) and total cells (C) are shown as number of cells per cavity. The results are from a representative experiment with 11 mice. Significant p values for each time point are shown (Dunnett's post test and unpaired T-test).

The nature of data set [4]: Determination of bioavailability in the rat. In kind it is in vivo. The note with it: oral, rats, gavage 10 mg/kg versus intravenously 1 mg/kg, plasma LC-MS. On the procedure: The phosphotetrahydropyran test compound (Formula 1; n=1 and R=2,4-dimethylphenyl) was administered to rats by gavage at 10 mg/kg or intravenously at 1 mg/kg). Blood samples were taken at 15 and 30 min and at 1, 2, 3, 4, 8, 12 and 24 hours. Plasma samples were prepared by the addition of 50% acetonitrile/water (20 μL). Protein precipitation was carried out by the addition of trichloroacetic acid (20% in water, 40 μL), vortexing (20 s) and after storing at 4° C. for 60 minutes, centrifugation (10,000 rpm) in a microcentrifuge for 5 min. The supernatant was subsequently separated and 25 μL injected directly onto the column for LC-MS analysis.

Data set [5] concerns New Zealand White rabbits, filtering bleb. Kind of data set: Rabbit model of experimental glaucoma filtering surgery. In kind it is in vivo. The note with it: intraoperative sponge 3 minutes; PXS-25 40 mg/mL, MMC 0.4 mg/mL. The procedure:
New Zealand White rabbits (18) were subjected to a modified glaucoma filtering surgery in the left eye. The animals received either intraoperative PXS-25 at a concentration of 40 mg/mL (Group 1), intraoperative Mitomycin C (MMC) at a concentration of 0.4 mg/mL (Group 2), or intraoperative test compound and Mitomycin C (MMC) (Group 3).
Filtration surgery was performed on the left eye only. MMC, test compound (Formula 1) or the combination were delivered with a large sponge measuring 8×10 mm (dry size) cut from a Weck-Cel prior to cutting the flap and sclerostomy. The sponge pieces were placed between the conjunctiva and sclera over the determined filtration site for 3 minutes. The area was then thoroughly irrigated with 30 mL of physiologic saline. The animals were reviewed on the first day after surgery, and then weekly until bleb failure. The study was terminated after the 8 week. Fluorescein tracer studies was performed as follows. Sodium fluorescein was injected into the anterior chamber and the drainage pathway using a slit lamp based digital video camera system was recorded. The animals were sacrificed and tissue sections were prepared for immunohistochemically staining for signs of scarring and inflammation.

SMILES strings stand for the structures.

T1 sequence (P08169 45-2313 limits assumed): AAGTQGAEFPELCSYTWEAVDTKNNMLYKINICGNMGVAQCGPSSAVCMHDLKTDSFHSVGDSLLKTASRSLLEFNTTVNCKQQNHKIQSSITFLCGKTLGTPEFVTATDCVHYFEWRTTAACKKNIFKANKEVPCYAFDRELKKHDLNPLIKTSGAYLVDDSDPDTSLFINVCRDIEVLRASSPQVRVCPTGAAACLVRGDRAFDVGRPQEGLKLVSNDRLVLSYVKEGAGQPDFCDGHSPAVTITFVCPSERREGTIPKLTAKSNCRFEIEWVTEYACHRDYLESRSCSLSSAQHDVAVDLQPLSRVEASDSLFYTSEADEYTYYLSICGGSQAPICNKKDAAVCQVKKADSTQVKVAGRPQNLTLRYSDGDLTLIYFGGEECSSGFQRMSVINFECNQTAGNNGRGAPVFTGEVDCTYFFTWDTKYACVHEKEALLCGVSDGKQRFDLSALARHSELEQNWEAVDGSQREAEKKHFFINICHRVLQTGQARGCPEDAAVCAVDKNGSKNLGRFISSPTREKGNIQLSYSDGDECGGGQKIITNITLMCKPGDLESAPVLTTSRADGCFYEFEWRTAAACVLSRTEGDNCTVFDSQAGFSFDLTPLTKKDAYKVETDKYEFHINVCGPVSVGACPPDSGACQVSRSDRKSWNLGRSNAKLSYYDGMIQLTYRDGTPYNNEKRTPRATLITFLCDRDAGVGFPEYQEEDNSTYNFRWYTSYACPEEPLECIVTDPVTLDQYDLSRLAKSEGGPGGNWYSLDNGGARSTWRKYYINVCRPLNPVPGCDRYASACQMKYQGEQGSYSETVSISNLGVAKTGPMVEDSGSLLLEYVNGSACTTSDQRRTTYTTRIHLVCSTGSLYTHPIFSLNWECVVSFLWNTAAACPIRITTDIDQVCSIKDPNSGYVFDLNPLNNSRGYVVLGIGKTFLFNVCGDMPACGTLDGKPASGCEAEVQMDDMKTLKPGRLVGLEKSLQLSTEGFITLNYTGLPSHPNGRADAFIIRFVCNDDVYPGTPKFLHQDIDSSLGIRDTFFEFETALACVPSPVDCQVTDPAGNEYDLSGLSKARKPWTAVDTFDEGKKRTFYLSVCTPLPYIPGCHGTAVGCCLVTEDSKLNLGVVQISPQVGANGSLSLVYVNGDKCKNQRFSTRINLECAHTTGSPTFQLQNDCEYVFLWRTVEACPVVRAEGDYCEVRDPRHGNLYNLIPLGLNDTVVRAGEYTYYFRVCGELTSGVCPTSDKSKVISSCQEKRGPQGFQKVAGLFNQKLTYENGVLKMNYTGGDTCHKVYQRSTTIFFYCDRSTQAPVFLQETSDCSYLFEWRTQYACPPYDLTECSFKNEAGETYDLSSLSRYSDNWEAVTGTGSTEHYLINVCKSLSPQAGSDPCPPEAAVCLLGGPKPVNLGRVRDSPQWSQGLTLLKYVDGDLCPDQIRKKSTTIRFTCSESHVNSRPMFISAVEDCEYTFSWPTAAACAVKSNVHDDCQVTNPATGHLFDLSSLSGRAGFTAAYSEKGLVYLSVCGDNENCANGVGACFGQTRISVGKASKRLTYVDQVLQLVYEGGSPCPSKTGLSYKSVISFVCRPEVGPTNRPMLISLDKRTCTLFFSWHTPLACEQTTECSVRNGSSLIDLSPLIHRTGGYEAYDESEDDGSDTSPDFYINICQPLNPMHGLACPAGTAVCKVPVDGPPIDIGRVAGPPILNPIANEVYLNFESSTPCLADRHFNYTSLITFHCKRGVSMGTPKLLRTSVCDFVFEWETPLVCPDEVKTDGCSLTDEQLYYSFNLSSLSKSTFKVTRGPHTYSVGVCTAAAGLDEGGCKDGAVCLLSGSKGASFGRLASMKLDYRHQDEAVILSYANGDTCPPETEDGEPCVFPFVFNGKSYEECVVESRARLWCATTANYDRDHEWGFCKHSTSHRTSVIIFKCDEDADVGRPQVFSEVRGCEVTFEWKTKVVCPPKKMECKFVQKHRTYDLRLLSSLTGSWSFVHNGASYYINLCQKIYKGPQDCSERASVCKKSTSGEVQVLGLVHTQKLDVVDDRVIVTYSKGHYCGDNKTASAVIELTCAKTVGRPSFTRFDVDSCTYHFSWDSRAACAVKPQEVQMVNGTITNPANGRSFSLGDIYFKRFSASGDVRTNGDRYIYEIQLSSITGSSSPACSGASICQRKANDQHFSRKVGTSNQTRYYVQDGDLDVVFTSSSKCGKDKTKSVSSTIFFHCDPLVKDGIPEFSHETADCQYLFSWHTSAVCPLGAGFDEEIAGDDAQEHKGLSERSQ

The Ki is a dissociation constant, usually derived from enzyme kinetics or from competition with a known ligand. Read a high Ki as lower affinity. One may read the bioavailability as dose-corrected exposure relative to a reference, in per cent. A higher bioavailability goes with good availability. `Cc1ccc(COC2O[C@H](CCP(=O)(O)O)[C@@H](O)[C@H](O)[C@@H]2O)c(C)c1` (some centres unmarked) [Formula 1; n=1 and R=2,4-dimethylphenyl]: in data set [1], the Ki is 7.9 µM. Further, the “total number of inflammatory cells in BAL fluid versus LPS control group” value in data set [2] (5 mg/kg iv) is “not significantly different”; in data set [2] (15 mg/kg iv), “significant inhibition”; in data set [2] (30 mg/kg iv), “not significantly different”. Also, the “decrease of neutrophils number in BAL fluid compared to vehicle (saline)-control group” value in data set [2] (iv pre-treatment 15 min prior to LPS, P<0.05) amounted to 86.7%. The “peritoneal total cell number in untreated mice compared with treated mice” value in data set [3] (5 mg/kg iv) and in data set [3] (15 mg/kg iv) was “markedly higher” each time. The “anti-inflammatory actions (leukocyte migration into the peritoneal cavity)” value in data set [3] (iv pre-treatment, 3 h after thioglycolate) is on record as “Dose-dependent anti-inflammatory actions”. In data set [4], this compound returned a bioavailability of 7.7%.
In the case of `CO[C@@]12[C@H](COC(N)=O)C3=C(C(=O)C(C)=C(N)C3=O)N1C[C@@H]1N[C@@H]12` [Mitomycin C], in data set [5], the “tissue surrounding the site of surgical intervention / bleb” value was “very visible dead tissue surrounding the bleb”.
For `O=C[C@@H](O)[C@@H](O)[C@H](O)[C@H](O)COP(=O)(O)O` [mannose-6-phosphate, reference compound], in data set [1], the Ki stood at 19 µM.
